Measured values: paper PMC11318023, “Discovery of VU6008677: A Structurally Distinct Tricyclic M4 Positive Allosteric Modulator with Improved CYP450 Profile” (ACS Medicinal Chemistry Letters, 2024)
Like-named read-outs stand apart in the source and are kept apart here.

Assays:
human M4 (hM4) = molecular target: T1, human M4 (hM4) (Homo sapiens, UniProt P08173); experiment: Calcium mobilization assay, hM4/Gqi5-CHO cells, with EC20 acetylcholine (PAM); conditions: for hM4 pEC50 / hM4 %ACh Max / EC50: hM4/Gqi5-CHO cells; for hM4 %ACh Max: maximum response; for EC50: read-out: hM4 EC50
T1 sequence (P08173 1-479): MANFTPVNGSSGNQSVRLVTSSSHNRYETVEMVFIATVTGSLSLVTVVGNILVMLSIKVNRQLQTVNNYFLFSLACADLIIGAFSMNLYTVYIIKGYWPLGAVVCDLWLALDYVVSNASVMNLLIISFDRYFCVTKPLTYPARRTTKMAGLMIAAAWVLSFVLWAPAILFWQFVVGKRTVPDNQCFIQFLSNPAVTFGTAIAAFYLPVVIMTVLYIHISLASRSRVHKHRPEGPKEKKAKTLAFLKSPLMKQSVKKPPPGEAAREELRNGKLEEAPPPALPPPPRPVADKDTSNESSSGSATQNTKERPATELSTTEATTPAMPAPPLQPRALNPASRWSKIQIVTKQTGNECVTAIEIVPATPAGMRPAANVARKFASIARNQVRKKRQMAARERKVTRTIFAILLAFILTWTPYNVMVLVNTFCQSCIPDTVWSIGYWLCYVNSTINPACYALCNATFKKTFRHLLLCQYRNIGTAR

[1] = Binding in brain homogenate from rat, equilibrium dialysis; assay type: in vitro ADME; conditions: rat brain homogenates; for fraction unbound at 6 h, 1 µM: rat, brain homogenate, read-out: rat fu,brain
[2] = Binding in plasma from human, equilibrium dialysis; assay type: in vitro ADME; conditions: for fraction unbound at 6 h, 5 µM: human, plasma, read-out: human fu,plasma
CYP 1A2 = molecular target: T2, CYP 1A2 (Homo sapiens, UniProt P05177); experiment: CYP450 inhibition in pooled human liver microsomes, CYP-specific probe substrates; assay type: in vitro ADME; conditions: for IC50: pooled HLM, NADPH, CYP-specific probe substrate
T2 sequence (P05177 1-516): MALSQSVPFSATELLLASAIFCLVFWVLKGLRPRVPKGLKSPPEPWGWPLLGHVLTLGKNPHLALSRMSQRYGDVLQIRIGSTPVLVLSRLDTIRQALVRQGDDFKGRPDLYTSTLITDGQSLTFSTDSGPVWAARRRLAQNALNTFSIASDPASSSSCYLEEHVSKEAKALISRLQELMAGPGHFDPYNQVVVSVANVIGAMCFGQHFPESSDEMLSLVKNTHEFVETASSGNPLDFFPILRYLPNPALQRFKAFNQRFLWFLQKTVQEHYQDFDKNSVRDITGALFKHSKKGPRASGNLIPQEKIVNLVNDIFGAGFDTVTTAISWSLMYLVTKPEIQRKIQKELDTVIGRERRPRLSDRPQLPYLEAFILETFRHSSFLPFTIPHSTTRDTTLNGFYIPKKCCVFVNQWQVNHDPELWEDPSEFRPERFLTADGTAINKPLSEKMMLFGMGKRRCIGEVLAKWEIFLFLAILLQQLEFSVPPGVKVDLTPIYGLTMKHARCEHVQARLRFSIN

[3] = Intrinsic clearance in human liver microsomes (substrate depletion), predicted hepatic clearance; assay type: in vitro ADME; conditions: for CLint scaled at 1 µM: pH 7.4, human liver microsomes; for CLhep, human (predicted hepatic clearance): predicted from human microsomal CLint
CYP 2C9 = CYP 2C9 (Homo sapiens, UniProt P11712); experiment: CYP450 inhibition in pooled human liver microsomes, CYP-specific probe substrates; assay type: in vitro ADME; conditions: pooled HLM, NADPH, CYP-specific probe substrate
Chain of CYP 2C9 (P11712 whole entry): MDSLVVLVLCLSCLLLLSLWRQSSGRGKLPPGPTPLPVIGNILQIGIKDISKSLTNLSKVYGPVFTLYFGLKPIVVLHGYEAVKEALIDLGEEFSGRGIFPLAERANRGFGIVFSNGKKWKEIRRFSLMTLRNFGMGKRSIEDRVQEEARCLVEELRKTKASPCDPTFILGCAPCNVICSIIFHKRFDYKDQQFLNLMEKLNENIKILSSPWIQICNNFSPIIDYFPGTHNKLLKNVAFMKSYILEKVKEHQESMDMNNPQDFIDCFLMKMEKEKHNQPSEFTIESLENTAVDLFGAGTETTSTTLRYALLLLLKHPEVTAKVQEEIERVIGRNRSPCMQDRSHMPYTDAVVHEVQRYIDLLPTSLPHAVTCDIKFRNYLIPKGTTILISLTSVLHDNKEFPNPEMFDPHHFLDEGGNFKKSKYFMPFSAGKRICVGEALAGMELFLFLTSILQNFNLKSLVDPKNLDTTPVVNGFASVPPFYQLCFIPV

CYP 2D6 = CYP 2D6 (Homo sapiens, UniProt P10635); experiment: as above; assay type: in vitro ADME; conditions: pooled HLM, NADPH, CYP-specific probe substrate
Chain of CYP 2D6 (P10635 whole entry): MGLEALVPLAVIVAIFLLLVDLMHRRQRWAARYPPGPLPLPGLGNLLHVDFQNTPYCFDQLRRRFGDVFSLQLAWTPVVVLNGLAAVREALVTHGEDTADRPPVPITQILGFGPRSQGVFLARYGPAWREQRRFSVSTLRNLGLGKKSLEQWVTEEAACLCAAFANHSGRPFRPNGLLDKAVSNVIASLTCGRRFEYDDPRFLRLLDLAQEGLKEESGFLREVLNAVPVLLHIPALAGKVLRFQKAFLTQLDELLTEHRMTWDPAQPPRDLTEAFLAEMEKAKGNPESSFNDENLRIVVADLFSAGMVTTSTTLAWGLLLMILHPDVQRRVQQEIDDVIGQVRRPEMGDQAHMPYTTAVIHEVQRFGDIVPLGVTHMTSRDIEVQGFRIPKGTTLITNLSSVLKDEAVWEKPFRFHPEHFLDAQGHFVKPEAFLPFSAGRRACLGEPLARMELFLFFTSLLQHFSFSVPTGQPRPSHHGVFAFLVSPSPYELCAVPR

human M2 (hM2) = molecular target: T3, human M2 (hM2) (Homo sapiens, UniProt P08172); experiment: Calcium mobilization assay, hM2/Gqi5-CHO cells, with EC20 acetylcholine; assay type: cell-based
T3 construct: expressed in transfected cells
T3 sequence (P08172 1-466): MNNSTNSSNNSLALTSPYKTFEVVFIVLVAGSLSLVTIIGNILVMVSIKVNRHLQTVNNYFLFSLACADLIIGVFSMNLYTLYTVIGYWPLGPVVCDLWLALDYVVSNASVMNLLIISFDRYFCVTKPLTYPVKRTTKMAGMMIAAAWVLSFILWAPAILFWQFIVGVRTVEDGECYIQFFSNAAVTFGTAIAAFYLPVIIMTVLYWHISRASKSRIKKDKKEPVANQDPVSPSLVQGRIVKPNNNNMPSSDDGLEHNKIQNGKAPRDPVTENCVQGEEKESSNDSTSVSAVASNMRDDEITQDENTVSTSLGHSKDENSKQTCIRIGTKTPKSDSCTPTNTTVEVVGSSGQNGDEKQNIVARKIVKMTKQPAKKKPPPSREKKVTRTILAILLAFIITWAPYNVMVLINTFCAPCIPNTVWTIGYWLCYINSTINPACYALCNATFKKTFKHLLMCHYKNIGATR
Source text: buffer remained in the cell plates. […] After establishment of a […]

[4] = Binding in plasma from rat, equilibrium dialysis; assay type: in vitro ADME; conditions: read-out: rat fu,plasma
CYP 3A4 = CYP 3A4 (Homo sapiens, UniProt P08684); experiment: CYP450 inhibition in pooled human liver microsomes, CYP-specific probe substrates; assay type: in vitro ADME; conditions: pooled HLM, NADPH, CYP-specific probe substrate
Chain of CYP 3A4 (P08684 whole entry): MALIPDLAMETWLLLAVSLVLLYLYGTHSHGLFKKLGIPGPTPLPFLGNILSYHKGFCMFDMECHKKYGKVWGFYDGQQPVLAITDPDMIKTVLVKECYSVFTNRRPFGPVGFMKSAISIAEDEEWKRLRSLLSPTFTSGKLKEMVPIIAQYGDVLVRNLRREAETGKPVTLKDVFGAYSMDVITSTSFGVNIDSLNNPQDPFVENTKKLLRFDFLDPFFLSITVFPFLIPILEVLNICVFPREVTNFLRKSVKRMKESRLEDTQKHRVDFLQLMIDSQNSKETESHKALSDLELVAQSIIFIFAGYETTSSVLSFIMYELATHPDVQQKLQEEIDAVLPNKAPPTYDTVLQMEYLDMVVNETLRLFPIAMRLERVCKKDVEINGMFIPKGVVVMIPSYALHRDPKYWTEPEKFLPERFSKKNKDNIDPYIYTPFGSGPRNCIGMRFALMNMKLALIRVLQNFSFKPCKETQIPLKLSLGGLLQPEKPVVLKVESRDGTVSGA

[5] = Intrinsic clearance in rat liver microsomes (substrate depletion), predicted hepatic clearance; assay type: in vitro ADME; conditions: for CLint scaled at 1 µM: pH 7.4, rat liver microsomes; for CLhep, rat (predicted hepatic clearance): predicted from rat microsomal CLint
[6] = calcium mobilization, EC20 acetylcholine
[7] = calcium mobilization, EC20 fixed concentration of acetylcholine

hM4 pEC50 (human M4 (hM4); [6]) | hM4 %ACh Max (human M4 (hM4); [6]) | EC50 (human M4 (hM4); [7]) | fraction unbound at 6 h, 1 µM [1] | fraction unbound at 6 h, 5 µM [2] | IC50 (CYP 1A2) | CLint scaled at 1 µM [3] | CLhep, human (predicted hepatic clearance) [3] | IC50 (CYP 2C9) | IC50 (CYP 2D6) | fraction unbound at 6 h, 5 µM [4] | IC50 (CYP 3A4) | CLint scaled at 1 µM [5] | CLhep, rat (predicted hepatic clearance) [5] | SMILES | also measured
5.88 | 69% | 1.3 µM |  |  |  |  |  |  |  |  |  |  |  | COc1ccc(CNc2nncc3c2sc2nc(C)c(Cl)c(C)c23)cc1F [Compound 22a] | 
5.22 | 45% | 6 µM |  |  |  |  |  |  |  |  |  |  |  | Cc1c(Cl)cnc2sc3c(N4CCCC4)ncnc3c12 [Compound 15a] | 
 |  |  | 0.003 | 0.008 | 640 nM | 147 mL/min/kg | 18 mL/min/kg | > 30000 nM | > 30000 nM | 0.031 | > 30000 nM | 334 mL/min/kg | 58 mL/min/kg | Cc1c(Cl)cnc2sc3c(N4CC5(COC5)C4)ncnc3c12 [Compound 15h] | hM2 EC50 (human M2 (hM2)): inactive
6.27 | 41% |  |  |  |  |  |  |  |  |  |  |  |  | Cc1nc2sc3c(NCc4ccc(OC(F)F)cc4)nncc3c2c(C)c1Cl [Compound 22e] | 
6.72 | 67% | 0.19 µM |  |  |  |  |  |  |  |  |  |  |  | COCCCNc1nncc2c1sc1nc(C)c(Cl)c(C)c12.Cl [Compound 22g] | 
7.09 | 65% | 0.081 µM |  | ≤ 0.01 | 1500 nM | 79 mL/min/kg | 17 mL/min/kg | 9100 nM | 330 nM | ≤ 0.01 | > 30000 nM | 316 mL/min/kg | 57 mL/min/kg | Cc1c(Cl)cnc2sc3c(NC4CC(c5ccncc5)C4)ncnc3c12 (stereo not drawn) [Compound 15e] | hM2 EC50 (human M2 (hM2)): inactive
6.34 | 71% | 0.45 µM |  |  |  |  |  |  |  |  |  |  |  | Cc1ncc(CNc2ncnc3c2sc2ncc(Cl)c(C)c23)cn1.Cl [Compound 15c] | 
6.29 | 73% | 0.51 µM |  |  |  |  |  |  |  |  |  |  |  | Cc1nc2sc3c(N4CC5CC5C4)nncc3c2c(C)c1Cl.Cl (stereo not drawn) [Compound 22c] | 
6.39 | 51% | 0.4 µM |  |  |  |  |  |  |  |  |  |  |  | Cc1c(Cl)cnc2sc3c(NC4(C)CC4)ncnc3c12 [Compound 15b] | 
 |  |  | 0.002 | 0.02 | 360 nM | 224 mL/min/kg | 19 mL/min/kg | > 30000 nM | > 30000 nM | 0.171 | > 30000 nM | 642 mL/min/kg | 63 mL/min/kg | Cc1c(Cl)cnc2sc3c(N4CC(C#N)C4)ncnc3c12 [Compound 15f] | fold improvement of CYP 1A2 inhibition compared with ML253 (CYP 1A2; vs ML253): 3 fold; hM2 EC50 (human M2 (hM2)): inactive
6.50 | 84% | 0.32 µM |  |  |  |  |  |  |  |  |  |  |  | Cc1c(Cl)cnc2sc3c(NCc4ccncc4)ncnc3c12 [Compound 15d] | 

The next lines start with the compound.

SMILES | hM4 pEC50 (human M4 (hM4); [6]) | hM4 %ACh Max (human M4 (hM4); [6]) | EC50 (human M4 (hM4); [7]) | fraction unbound at 6 h, 1 µM [1] | fraction unbound at 6 h, 5 µM [2] | IC50 (CYP 1A2) | CLint scaled at 1 µM [3] | CLhep, human (predicted hepatic clearance) [3] | IC50 (CYP 2C9) | IC50 (CYP 2D6) | fraction unbound at 6 h, 5 µM [4] | IC50 (CYP 3A4) | CLint scaled at 1 µM [5] | CLhep, rat (predicted hepatic clearance) [5] | also measured
Cc1nc2sc3c(N4CC5(COC5)C4)ncnc3c2c(C)c1Cl.Cl [Compound 13d] | <5.00 | 71% | > 10 µM |  |  |  |  |  |  |  |  |  |  |  | EC50 (human M4 (hM4); as quoted in text in μM, EC20 acetylcholine): > 10 µM
Cc1nc2sc3c(NC4CC(F)(F)C4)nncc3c2c(C)c1Cl.Cl [Compound 22k] |  |  |  | 0.008 | 0.01 | 980 nM | 185 mL/min/kg | 19 mL/min/kg | > 30000 nM | 25200 nM | 0.057 | > 30000 nM | 1670 mL/min/kg | 67 mL/min/kg | EC50 (human M2 (hM2)): 260 nM; hM2 % ACh Max (human M2 (hM2)): 49%
Cc1ncc(CNc2ncnc3c2sc2nc(C)c(Cl)c(C)c23)cn1.Cl [Compound 13b] | < 5.00 | 75% | > 10 µM |  |  |  |  |  |  |  |  |  |  |  | 
Cc1nc2sc3c(NC4CC4)ncnc3c2c(C)c1Cl.Cl [Compound 13l] |  |  |  | 0.001 to 0.005 |  | < 100 nM | 78 mL/min/kg | 17 mL/min/kg | > 15800 nM | > 30000 nM | ≤ 0.01 | 15800 nM | 423 mL/min/kg | 60 mL/min/kg | rat fu,brain ([1]; fraction unbound): 0.001; EC50 (human M2 (hM2)): 5000 nM; hM2 % ACh Max (human M2 (hM2)): 49%
Cc1nc2oc3c(NCc4ccc(C(C)(C)O)cc4)ncnc3c2c(C)c1Cl [Compound 14c] | 5.93 | 62% | 1.2 µM |  |  |  |  |  |  |  |  |  |  |  | 
Cc1nc2sc3c(NC4CC(c5ccncc5)C4)ncnc3c2c(C)c1Cl.Cl (stereo not drawn) [Compound 13h] | 5.82 | 84% | 1.5 µM |  |  |  |  |  |  |  |  |  |  |  | 
Cc1nc2sc3c(NC4CCC4)nncc3c2c(C)c1Cl.Cl [Compound 22j] |  |  |  | 0.006 | 0.005 | 520 nM | 49 mL/min/kg | 15 mL/min/kg | > 30000 nM | 19200 nM | 0.026 | > 30000 nM | 1280 mL/min/kg | 66 mL/min/kg | EC50 (human M2 (hM2)): > 10000 nM; hM2 % ACh Max (human M2 (hM2)): 44%
Cc1nc2oc3c(NC4CC4(C)C)ncnc3c2c(C)c1Cl.Cl (stereo not drawn) [Compound 14p] |  |  |  | 0.002 | 0.004 | 320 nM | 168 mL/min/kg | 19 mL/min/kg | > 30000 nM | > 30000 nM | 0.038 | > 30000 nM | 467 mL/min/kg | 61 mL/min/kg | EC50 (human M2 (hM2)): 2300 nM; hM2 % ACh Max (human M2 (hM2)): 39%
Cc1nc2oc3c(NC4CC4)ncnc3c2c(C)c1Cl.Cl [Compound 14o] |  |  |  | 0.017 | < 0.01 | < 100 nM | 37 mL/min/kg | 13 mL/min/kg | ≥ 30000 nM | ≥ 30000 nM | 0.06 | ≥ 30000 nM | 175 mL/min/kg | 50 mL/min/kg | human fu,plasma ([2]; fraction unbound): 0.007; hM2 EC50 (human M2 (hM2)): inactive
Cc1nc2oc3c(N(C)C)ncnc3c2c(C)c1Cl.Cl [Compound 14e] | 5.86 |  | 1.4 µM |  |  |  |  |  |  |  |  |  |  |  | 
COc1ccc(CNc2ncnc3c2oc2nc(C)c(Cl)c(C)c23)cc1F.Cl [Compound 14a] | <5.00 | 49% | > 10 µM |  |  |  |  |  |  |  |  |  |  |  | 
Cc1nc2sc3c(NCC4CCC4)nncc3c2c(C)c1Cl.Cl [Compound 22f] | 6.40 |  |  |  |  |  |  |  |  |  |  |  |  |  | fold loss (decrease) in hM4 potency (human M4 (hM4); relative to the comparator analogue (13g, 13k vs 13l; 22f vs 22j)): ~5 fold
